# Where a name gives a salt, the structure may show the parent alone.
# Key:
# [1] = target: JAK1 kinase activity on STAT3 in TF1 cells (Homo sapiens, UniProt P23458); assay: pSTAT3 cell assay (MSD; TF1 cells, 30 ng/mL IL-6 stimulation); format: cell-based; settings: 30 ng/mL IL-6, 15 minutes
# In short: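 Serum starvation, 1 h compound (10 pt, 4-fold from 10 μM), IL-6 15 min, lysis. pSTAT3 read by MSD immunoassay, anti-STAT3 Abs. Normalized % activity vs log[cpd], 4-PL fit → IC50.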
# [2] = target: T1, human JAK3 kinase domain (JH1) (Homo sapiens, UniProt P52333); assay: JH1 biochemical assay for JAK3 (ADP-Glo kinase assay, recombinant JH1 catalytic domain, JAK3-974 peptide, 4 μM ATP)
# T1 construct: recombinantly generated catalytic kinase (also known as JH1) domain of human JAK1, JAK2, JAK3 and TYK2
# T1 sequence (P52333 822-1111 limits assumed): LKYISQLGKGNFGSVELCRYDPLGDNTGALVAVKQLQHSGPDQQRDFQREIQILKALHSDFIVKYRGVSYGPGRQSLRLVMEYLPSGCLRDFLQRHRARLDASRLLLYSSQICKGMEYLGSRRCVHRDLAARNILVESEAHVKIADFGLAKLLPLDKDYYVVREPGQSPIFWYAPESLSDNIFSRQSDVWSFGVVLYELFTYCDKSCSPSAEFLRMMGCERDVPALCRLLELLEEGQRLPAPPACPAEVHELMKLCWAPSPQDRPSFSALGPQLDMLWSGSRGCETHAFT
# In short: (§1)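 ADP-Glo luminescence with 50 μM peptide and 100 min reactions: JAK1 4 nM with JAK3-342 peptide; JAK2, JAK3 and TYK2 at 0.2, 0.3 and 2 nM with JAK3-974 peptide. Compounds tested from 10 or 1 μM top, 11 points, 3-fold. IC50 from a 4-parameter logistic fit of normalized activity.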
# [3] = target: T2, human JAK1 kinase domain (JH1) (Homo sapiens, UniProt P23458); assay: JH1 biochemical assay for JAK1 (ADP-Glo kinase assay, recombinant JH1 catalytic domain, JAK3-342 peptide, 35 μM ATP)
# T2 construct: recombinantly generated catalytic kinase (also known as JH1) domain of human JAK1, JAK2, JAK3 and TYK2
# T2 sequence (P23458 875-1153 limits assumed): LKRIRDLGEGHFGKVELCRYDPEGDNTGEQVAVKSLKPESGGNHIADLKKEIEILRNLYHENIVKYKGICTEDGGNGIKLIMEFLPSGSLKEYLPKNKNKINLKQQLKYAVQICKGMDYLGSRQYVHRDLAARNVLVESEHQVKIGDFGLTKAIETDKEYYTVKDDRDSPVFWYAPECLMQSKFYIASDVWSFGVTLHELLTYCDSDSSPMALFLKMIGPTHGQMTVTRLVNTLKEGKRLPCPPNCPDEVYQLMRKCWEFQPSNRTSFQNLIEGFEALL
# In short: as §1
# [4] = target: Tyk2 kinase activity on STAT4 in NK92 cells (Homo sapiens, UniProt P29597); assay: pSTAT4 cell assay (MSD; NK92 cells, 30 ng/mL IL2 stimulation); format: cell-based; settings: 30 ng/mL IL2, 15 minutes
# Chain of Tyk2 kinase activity on STAT4 in NK92 cells (P29597 whole entry): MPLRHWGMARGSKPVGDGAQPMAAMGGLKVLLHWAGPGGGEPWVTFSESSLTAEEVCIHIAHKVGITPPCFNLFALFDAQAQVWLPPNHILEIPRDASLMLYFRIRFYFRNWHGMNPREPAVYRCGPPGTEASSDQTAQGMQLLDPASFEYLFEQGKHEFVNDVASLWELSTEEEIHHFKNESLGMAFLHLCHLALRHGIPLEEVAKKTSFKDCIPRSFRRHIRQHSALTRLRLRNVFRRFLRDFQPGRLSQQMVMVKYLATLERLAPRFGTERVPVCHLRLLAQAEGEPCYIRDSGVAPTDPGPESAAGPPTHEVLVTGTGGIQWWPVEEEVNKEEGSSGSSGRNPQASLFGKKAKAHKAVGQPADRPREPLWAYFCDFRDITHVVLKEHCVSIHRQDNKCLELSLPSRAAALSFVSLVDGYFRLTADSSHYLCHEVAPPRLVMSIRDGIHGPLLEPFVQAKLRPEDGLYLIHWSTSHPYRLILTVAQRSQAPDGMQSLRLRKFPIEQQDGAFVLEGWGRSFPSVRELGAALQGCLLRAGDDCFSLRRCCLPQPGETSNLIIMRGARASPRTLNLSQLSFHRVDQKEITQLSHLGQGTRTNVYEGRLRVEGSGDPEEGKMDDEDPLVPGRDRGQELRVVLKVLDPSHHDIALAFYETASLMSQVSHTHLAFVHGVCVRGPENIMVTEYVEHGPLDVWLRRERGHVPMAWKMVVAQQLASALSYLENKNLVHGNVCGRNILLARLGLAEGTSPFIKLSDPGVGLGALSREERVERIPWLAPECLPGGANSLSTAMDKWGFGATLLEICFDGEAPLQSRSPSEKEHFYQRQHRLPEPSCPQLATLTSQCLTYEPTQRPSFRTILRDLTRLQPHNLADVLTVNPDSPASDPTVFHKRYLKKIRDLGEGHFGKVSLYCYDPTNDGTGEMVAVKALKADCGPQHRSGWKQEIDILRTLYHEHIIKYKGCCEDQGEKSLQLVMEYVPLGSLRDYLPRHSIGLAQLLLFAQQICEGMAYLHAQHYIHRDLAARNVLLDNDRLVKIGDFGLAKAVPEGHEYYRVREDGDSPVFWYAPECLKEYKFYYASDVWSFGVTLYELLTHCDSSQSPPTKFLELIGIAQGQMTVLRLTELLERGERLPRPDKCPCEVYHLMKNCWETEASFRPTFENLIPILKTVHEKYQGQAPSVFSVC
# In short: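 IC50 values come from 4-parameter logistic fits of normalized percent activity. Phospho-STAT was read by MSD (anti-STAT4 antibodies) in NK92 lysates after a 15 min stimulation with 30 ng/mL IL2. The serum-starved cells had been given compound for 1 h (10 points, four-fold, top 10 μM).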
# [5] = target: T3, human TYK2 kinase domain (JH1) (Homo sapiens, UniProt P29597); assay: JH1 biochemical assay for TYK2 (ADP-Glo kinase assay, recombinant JH1 catalytic domain, JAK3-974 peptide, 10 μM ATP)
# T3 construct: recombinantly generated catalytic kinase (also known as JH1) domain of human JAK1, JAK2, JAK3 and TYK2
# T3 sequence (P29597 897-1176 limits assumed): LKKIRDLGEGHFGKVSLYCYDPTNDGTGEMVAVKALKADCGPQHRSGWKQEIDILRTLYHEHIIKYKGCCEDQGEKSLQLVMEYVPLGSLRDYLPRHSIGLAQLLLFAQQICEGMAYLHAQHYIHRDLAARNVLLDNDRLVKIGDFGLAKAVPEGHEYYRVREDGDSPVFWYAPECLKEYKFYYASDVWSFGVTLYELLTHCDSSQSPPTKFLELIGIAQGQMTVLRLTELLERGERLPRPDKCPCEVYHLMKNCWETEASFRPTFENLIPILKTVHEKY
# In short: as §1
# [6] = target: JAK2 kinase activity on STAT5 in TF1 cells (Homo sapiens, UniProt O60674); assay: pSTAT5 cell assay (MSD; TF1 cells, 30 ng/mL IL-3 stimulation); format: cell-based; settings: 30 ng/mL IL-3, 15 minutes
# Chain of JAK2 kinase activity on STAT5 in TF1 cells (O60674 whole entry): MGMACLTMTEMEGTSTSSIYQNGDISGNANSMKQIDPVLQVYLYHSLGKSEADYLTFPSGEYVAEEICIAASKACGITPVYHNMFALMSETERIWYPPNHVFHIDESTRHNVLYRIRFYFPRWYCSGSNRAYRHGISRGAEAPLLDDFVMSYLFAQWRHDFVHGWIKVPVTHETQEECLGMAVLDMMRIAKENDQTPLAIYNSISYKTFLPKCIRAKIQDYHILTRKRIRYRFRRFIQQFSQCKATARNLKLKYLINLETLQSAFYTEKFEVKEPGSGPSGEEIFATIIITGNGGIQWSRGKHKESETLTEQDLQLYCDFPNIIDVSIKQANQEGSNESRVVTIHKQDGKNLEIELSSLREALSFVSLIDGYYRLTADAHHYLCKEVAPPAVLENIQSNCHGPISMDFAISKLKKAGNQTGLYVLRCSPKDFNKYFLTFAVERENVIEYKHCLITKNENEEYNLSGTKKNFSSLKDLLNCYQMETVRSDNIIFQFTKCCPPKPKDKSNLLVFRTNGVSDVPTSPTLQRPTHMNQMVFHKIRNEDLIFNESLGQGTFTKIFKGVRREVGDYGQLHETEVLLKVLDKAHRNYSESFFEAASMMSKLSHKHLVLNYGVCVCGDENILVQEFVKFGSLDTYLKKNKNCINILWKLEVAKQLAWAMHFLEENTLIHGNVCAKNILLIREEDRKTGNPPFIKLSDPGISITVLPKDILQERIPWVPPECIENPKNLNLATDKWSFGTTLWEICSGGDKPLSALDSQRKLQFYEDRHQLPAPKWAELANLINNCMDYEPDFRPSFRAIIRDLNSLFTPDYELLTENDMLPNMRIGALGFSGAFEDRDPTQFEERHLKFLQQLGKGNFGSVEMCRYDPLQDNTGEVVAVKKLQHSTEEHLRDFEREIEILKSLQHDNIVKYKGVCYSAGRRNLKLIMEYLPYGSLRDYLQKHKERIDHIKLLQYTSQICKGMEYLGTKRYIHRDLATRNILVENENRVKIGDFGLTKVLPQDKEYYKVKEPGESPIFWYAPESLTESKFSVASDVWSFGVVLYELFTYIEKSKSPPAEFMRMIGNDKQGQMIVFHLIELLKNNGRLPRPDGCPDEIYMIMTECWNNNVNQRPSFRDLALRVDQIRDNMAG
# In short: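 IC50 from a 4-parameter logistic fit of normalized pSTAT5 signal, measured by MSD in lysates of TF1 cells. Cells were serum-starved, exposed to compound for 1 h (top concentration 10 μM, four-fold, 10 points), then given IL-3 at 30 ng/mL for 15 min.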
# [7] = target: T4, human JAK2 kinase domain (JH1) (Homo sapiens, UniProt O60674); assay: JH1 biochemical assay for JAK2 (ADP-Glo kinase assay, recombinant JH1 catalytic domain, JAK3-974 peptide, 15 μM ATP)
# T4 construct: recombinantly generated catalytic kinase (also known as JH1) domain of human JAK1, JAK2, JAK3 and TYK2
# T4 sequence (O60674 849-1124 limits assumed): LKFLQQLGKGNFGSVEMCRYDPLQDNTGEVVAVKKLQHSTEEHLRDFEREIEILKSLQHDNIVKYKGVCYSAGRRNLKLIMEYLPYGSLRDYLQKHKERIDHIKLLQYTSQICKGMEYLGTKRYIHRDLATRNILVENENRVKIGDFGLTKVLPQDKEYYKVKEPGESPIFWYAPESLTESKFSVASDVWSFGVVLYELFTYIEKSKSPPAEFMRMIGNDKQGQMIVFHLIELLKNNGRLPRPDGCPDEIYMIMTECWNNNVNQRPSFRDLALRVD
# In short: as §1
# Chain of JAK1 kinase activity on STAT3 in TF1 cells (P23458 whole entry): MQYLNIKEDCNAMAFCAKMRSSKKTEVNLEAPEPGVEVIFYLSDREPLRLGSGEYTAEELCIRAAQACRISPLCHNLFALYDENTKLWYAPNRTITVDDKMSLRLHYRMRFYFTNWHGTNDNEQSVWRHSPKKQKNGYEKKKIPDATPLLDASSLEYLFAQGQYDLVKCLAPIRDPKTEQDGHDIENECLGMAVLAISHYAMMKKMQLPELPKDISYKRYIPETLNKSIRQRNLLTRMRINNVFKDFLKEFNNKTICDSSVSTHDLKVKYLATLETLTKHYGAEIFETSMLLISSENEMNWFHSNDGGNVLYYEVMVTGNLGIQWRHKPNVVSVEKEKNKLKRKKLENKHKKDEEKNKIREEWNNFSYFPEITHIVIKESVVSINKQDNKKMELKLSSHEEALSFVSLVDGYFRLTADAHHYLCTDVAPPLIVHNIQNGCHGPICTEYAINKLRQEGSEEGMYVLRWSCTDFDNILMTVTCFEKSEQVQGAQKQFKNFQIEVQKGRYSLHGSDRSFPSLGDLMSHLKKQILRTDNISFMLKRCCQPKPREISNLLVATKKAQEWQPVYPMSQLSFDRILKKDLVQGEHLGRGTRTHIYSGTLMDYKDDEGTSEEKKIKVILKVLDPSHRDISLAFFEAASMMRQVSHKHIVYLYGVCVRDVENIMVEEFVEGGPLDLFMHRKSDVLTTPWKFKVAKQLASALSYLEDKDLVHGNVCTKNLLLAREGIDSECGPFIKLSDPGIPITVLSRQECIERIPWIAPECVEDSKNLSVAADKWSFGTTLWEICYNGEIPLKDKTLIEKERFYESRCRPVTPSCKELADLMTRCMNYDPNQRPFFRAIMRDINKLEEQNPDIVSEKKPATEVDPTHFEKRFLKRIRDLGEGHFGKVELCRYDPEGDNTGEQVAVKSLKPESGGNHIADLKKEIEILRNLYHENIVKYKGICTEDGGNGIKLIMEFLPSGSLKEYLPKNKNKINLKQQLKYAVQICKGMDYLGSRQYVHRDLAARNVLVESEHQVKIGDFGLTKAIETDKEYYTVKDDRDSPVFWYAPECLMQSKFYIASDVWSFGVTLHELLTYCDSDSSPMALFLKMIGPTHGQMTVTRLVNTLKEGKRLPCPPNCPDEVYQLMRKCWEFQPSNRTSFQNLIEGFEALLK
SMILES,IC50 [1] [nM],"IC50 ([2]; JH1 kinase domain, ADP-Glo) [nM]","IC50 ([3]; JH1 kinase domain, ADP-Glo) [nM]",IC50 [4] [nM],"IC50 ([5]; JH1 kinase domain, ADP-Glo) [nM]",IC50 [6] [nM],"IC50 ([7]; JH1 kinase domain, ADP-Glo) [nM]","IC50 ([2]; JAK3 JH1, ADP-Glo) [nM]","IC50 ([3]; JAK1 JH1, ADP-Glo) [nM]","IC50 ([5]; TYK2 JH1, ADP-Glo) [nM]","IC50 ([7]; JAK2 JH1, ADP-Glo) [nM]"
"C[C@@H]1CN(c2ccnn3cc(-c4ccc5ncnn5c4)cc23)C(=O)[C@]1(C#N)C1CC1 [Example 57, (3R,4S)-1-(6-([1,2,4]triazolo[1,5-a]pyridin-6-yl)pyrrolo[1,2-b]pyridazin-4-yl)-3-cyclopropyl-4-methyl-2-oxopyrrolidine-3-carbonitrile]",1000 to 5000,100 to 1000,100 to 1000,> 100,5 to 20,> 10000,100 to 1000,–,–,–,–
"Cc1c(-c2cc3c(N4C[C@@H](C)[C@@](C#N)(C5CC5)C4=O)ccnn3c2)cnn1C [Example 166, (3R,4S)-3-cyclopropyl-1-(6-(1,5-dimethyl-1H-pyrazol-4-yl)pyrrolo[1,2-b]pyridazin-4-yl)-4-methyl-2-oxopyrrolidine-3-carbonitrile]",> 10000,100 to 1000,100 to 1000,> 100,5 to 20,> 10000,100 to 1000,–,–,–,–
"C[C@@H]1CN(c2ccnn3cc(-c4cnn(C5CC6(C5)CN(C)C6)c4)cc23)C(=O)[C@]1(C#N)C1CC1 [Example 315, (3R,4S)-3-cyclopropyl-4-methyl-1-(6-(1-(2-methyl-2-azaspiro[3.3]heptan-6-yl)-1H-pyrazol-4-yl)pyrrolo[1,2-b]pyridazin-4-yl)-2-oxopyrrolidine-3-carbonitrile]",1000 to 5000,–,–,50 to 100,–,1000 to 5000,–,< 100,100 to 1000,< 5,100 to 1000
"C[C@@H]1CN(c2nc(-c3cnn(C)c3)cn3ncc(Cl)c23)C(=O)[C@]1(C#N)C1CC1 [Example 206, (3R,4S)-1-(3-chloro-6-(1-methyl-1H-pyrazol-4-yl)pyrazolo[1,5-a]pyrazin-4-yl)-3-cyclopropyl-4-methyl-2-oxopyrrolidine-3-carbonitrile]",> 10000,100 to 1000,100 to 1000,> 100,5 to 20,> 10000,100 to 1000,–,–,–,–
"COc1ccc(-c2cc3c(N4C[C@@H](C)[C@@](C#N)(C5CC5)C4=O)ccnn3c2)nc1 [Example 145, (3R,4S)-3-cyclopropyl-1-(6-(5-methoxypyridin-2-yl)pyrrolo[1,2-b]pyridazin-4-yl)-4-methyl-2-oxopyrrolidine-3-carbonitrile trifluoroacetate]",5000 to 10000,100 to 1000,100 to 1000,> 100,5 to 20,> 10000,100 to 1000,–,–,–,–
"C[C@@H]1CN(c2ccnn3cc(-c4ccn(C)n4)cc23)C(=O)[C@]1(C#N)C1CC1 [Example 63, (3R,4S)-3-cyclopropyl-4-methyl-1-(6-(1-methyl-1H-pyrazol-3-yl)pyrrolo[1,2-b]pyridazin-4-yl)-2-oxopyrrolidine-3-carbonitrile]",> 10000,100 to 1000,100 to 1000,> 100,5 to 20,> 10000,100 to 1000,–,–,–,–
"C[C@@H]1CN(c2ccnn3cc(-c4ccc(N(C)C)nc4)cc23)C(=O)[C@]1(C#N)C1CC1 [Example 62, (3R,4S)-3-cyclopropyl-1-(6-(6-(dimethylamino)pyridin-3-yl)pyrrolo[1,2-b]pyridazin-4-yl)-4-methyl-2-oxopyrrolidine-3-carbonitrile]",1000 to 5000,100 to 1000,100 to 1000,50 to 100,< 5,1000 to 5000,100 to 1000,–,–,–,–
"C[C@@H]1CN(c2ccnn3cc(-c4ccc(C#N)nc4)cc23)C(=O)[C@]1(C#N)C1CC1 [Example 86, 5-(4-((3R,4S)-3-cyano-3-cyclopropyl-4-methyl-2-oxopyrrolidin-1-yl)pyrrolo[1,2-b]pyridazin-6-yl)picolinonitrile trifluoroacetate]",5000 to 10000,100 to 1000,100 to 1000,> 100,5 to 20,> 10000,1000 to 5000,–,–,–,–
